In ChEMBL document CHEMBL6127124, “Structure-Activity Relationships and Discovery of (S)-5-(tert-Butyl)-11-(difluoromethoxy)-9-methoxy-2-oxo-1,2,5,6-tetrahydropyrido[2',1':2,3]imidazo[4,5-h]quinoline-3-carboxylic Acid (AB-161), a Novel Orally Available and Liver-Centric HBV RNA Destabilizer” (J Med Chem, 2024):
In brackets after ≈: the same amount, converted by molar mass.

Tests used:
[1] = Drug concentration in Beagle dog plasma at 10 mg/kg, po measured for 12 hrs by LC-MS/MS analysis; assay type: ADME, organism-based, Canis lupus familiaris; details: read-out: Ct
Hepatitis B virus [2] = test: Antiviral activity against HBV genotype D in immuno-competent C57BL/6 mouse model of chronic HBV assessed as log10 reduction in serum HBsAg production at 10 mg/kg, po qd for 14 days measured 24 hrs post-last dose by EIA relative to control; assay type: functional; details: time 15 day
[3] = Ratio of drug concentration in lung to plasma of Beagle dog at 10 mg/kg, po measured for 12 hrs by LC-MS/MS analysis; assay type: ADME, organism-based, Canis lupus familiaris; details: lung (relative to plasma)
[4] = Drug concentration in Beagle dog kidney at 10 mg/kg, po measured for 12 hrs by LC-MS/MS analysis; assay type: ADME, organism-based, Canis lupus familiaris; details: read-out: Ct
[5] = Ratio of drug concentration in kidney to plasma of Beagle dog at 10 mg/kg, po measured for 12 hrs by LC-MS/MS analysis; assay type: ADME, organism-based, Canis lupus familiaris; details: kidney (relative to plasma)
[6] = Plasma protein binding in monkey assessed as unbound fraction at 2 uM incubated for 6 hrs by equilibrium dialysis; assay type: ADME, cell-free, Macaca mulatta; details: rhesus monkey
[7] = Ratio of drug concentration in liver to plasma of Beagle dog at 10 mg/kg, po measured for 12 hrs by LC-MS/MS analysis; assay type: ADME, organism-based, Canis lupus familiaris; details: liver (relative to plasma)
[8] = Ratio of total drug concentration in liver to plasma in CD-1 mouse at 10 mg/kg, po measured for 12 hrs by LC-MS/MS analysis; assay type: ADME, organism-based; details: liver and plasma
[9] = Drug concentration in Beagle dog lung at 10 mg/kg, po measured for 12 hrs by LC-MS/MS analysis; assay type: ADME, organism-based, Canis lupus familiaris; details: read-out: Ct
[10] = Drug concentration in CD-1 mouse liver at 10 mg/kg, po measured for 24 hrs by LC-MS/MS analysis; assay type: ADME, organism-based; details: read-out: Ct
[11] = Drug concentration in CD-1 mouse plasma at 10 mg/kg, po measured for 24 hrs by LC-MS/MS analysis; assay type: ADME, organism-based; details: read-out: Ct
[12] = Plasma protein binding in mouse assessed as unbound fraction at 2 uM incubated for 6 hrs by equilibrium dialysis; assay type: ADME, cell-free
Cytochrome P450 2B6 = molecular target: T1, Cytochrome P450 2B6 (Homo sapiens, UniProt P20813); test: Inhibition of CYP2B6 in human liver microsomes using bupropion as substrate preincubated for 30 min followed by NADPH addition measured after 12 mins by LC-MS/MS analysis; assay type: ADME, Microsome
T1 sequence (P20813 whole entry): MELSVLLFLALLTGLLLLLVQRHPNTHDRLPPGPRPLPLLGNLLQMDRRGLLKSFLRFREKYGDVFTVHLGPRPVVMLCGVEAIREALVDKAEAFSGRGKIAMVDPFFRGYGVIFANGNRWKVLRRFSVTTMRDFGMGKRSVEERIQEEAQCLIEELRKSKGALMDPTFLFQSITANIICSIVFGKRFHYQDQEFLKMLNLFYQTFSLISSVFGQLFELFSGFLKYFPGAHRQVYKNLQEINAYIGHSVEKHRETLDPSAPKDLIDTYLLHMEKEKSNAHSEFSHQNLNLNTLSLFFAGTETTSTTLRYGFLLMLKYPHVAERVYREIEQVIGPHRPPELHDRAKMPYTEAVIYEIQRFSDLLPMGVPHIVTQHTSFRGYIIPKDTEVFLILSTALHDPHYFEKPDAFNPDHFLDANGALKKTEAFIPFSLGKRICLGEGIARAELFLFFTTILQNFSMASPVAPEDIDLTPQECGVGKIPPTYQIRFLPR

[13] = Metabolic stability in Sprague-Dawley rat liver microsomes assessed as clearance at 0.3 uM preincubated for 5 mins followed by NADPH addition measured upto 60 mins by LC-MS/MS analysis; assay type: ADME, Microsome; details: time < 65 min, read-out: CLH
[14] = Kinetic solubility of compound in aqueous buffer at pH 4 at 200 uM incubated for 24 hrs by UPLC UV analysis; assay type: physicochemical; details: read-out: Kinetic_solubility
[15] = Plasma protein binding in dog assessed as unbound fraction at 2 uM incubated for 6 hrs by equilibrium dialysis; assay type: ADME, cell-free, Canis lupus familiaris
[16] = Drug concentration in Beagle dog liver at 10 mg/kg, po measured for 12 hrs by LC-MS/MS analysis; assay type: ADME, organism-based, Canis lupus familiaris; details: read-out: Ct
Hepatitis B virus [17] = test: Antiviral activity against HBV infected in human HepG2.2.15 cells assessed as reduction in HBsAg level incubated for 6 days with media and compound replenishment on third day by CLIA; assay type: functional, organism-based; details: HepG2.2.15, 144 h; for EC90: time 6 day
[18] = AUC (0 to 24 hrs) in CD-1 mouse at 10 mg/kg, po measured for 24 hrs by LC-MS/MS analysis; assay type: ADME, organism-based; details: in vivo
Hepatitis B virus [19] = test: Antiviral activity against HBV genotype D in immuno-competent C57BL/6 mouse model of chronic HBV assessed as log10 reduction in serum HBsAg production at 1 mg/kg, po qd for 14 days measured 24 hrs post-last dose by EIA relative to control; assay type: functional; details: time 15 day
[20] = Plasma protein binding in rat assessed as unbound fraction at 2 uM incubated for 6 hrs by equilibrium dialysis; assay type: ADME, cell-free
[21] = Selectivity ratio of drug concentration in liver in CD-1 mouse at 10 mg/kg, po measured for 24 hrs to EC90 for antiviral activity against HBV infected in human HepG2.2.15 cells assessed as reduction in HBsAg level; assay type: ADME, organism-based; details: in vivo
[22] = Metabolic stability in cynomolgous monkey liver microsomes assessed as clearance at 0.3 uM preincubated for 5 mins followed by NADPH addition measured upto 60 mins by LC-MS/MS analysis; assay type: ADME, Macaca fascicularis, Microsome; details: cynomolgus monkey, read-out: CLH
Hepatitis B virus [23] = test: Antiviral activity against HBV infected in human HepG2.2.15 cells assessed as reduction in HBsAg level incubated for 6 days with media and compound replenishment on third day in presence of 40 percent mouse serum by CLIA; assay type: functional, organism-based; details: HepG2.2.15, 144 h
[24] = Ratio of drug concentration in liver to plasma of CD-1 mouse at 10 mg/kg, po measured for 24 hrs by LC-MS/MS analysis; assay type: ADME, organism-based; details: liver and plasma
[25] = Kinetic solubility of compound in aqueous buffer at pH 7.4 at 200 uM incubated for 24 hrs by UPLC UV analysis; assay type: physicochemical; details: read-out: Kinetic_solubility
[26] = Cytotoxicity in human HepG2.2.15 cells by Cell Titer-Glo assay; assay type: toxicity, cell-based, HepG2 2.2.15
[27] = Plasma protein binding in human assessed as unbound fraction at 2 uM incubated for 6 hrs by equilibrium dialysis; assay type: ADME, cell-free
[28] = Permeability across apical to basal side in human Caco-2 cells at 5 uM incubated for 120 mins by LC-MS/MS analysis; assay type: ADME, cell-based; details: read-out: permeability
[29] = Selectivity ratio of drug concentration in liver in CD-1 mouse at 10 mg/kg, po measured for 12 hrs to EC90 for antiviral activity against HBV infected in human HepG2.2.15 cells assessed as reduction in HBsAg level; assay type: ADME, organism-based; details: in vivo
[30] = Metabolic stability in CD-1 mouse liver microsomes assessed as clearance at 0.3 uM preincubated for 5 mins followed by NADPH addition measured upto 60 mins by LC-MS/MS analysis; assay type: ADME, Microsome; details: time < 65 min, read-out: CLH
[31] = Ratio of total drug concentration in liver to plasma in CD-1 mouse at 10 mg/kg, po measured for 24 hrs by LC-MS/MS analysis; assay type: ADME, organism-based; details: CD-1, mouse, liver and plasma

concentration at 12 h [1] [ng/g] | Kp at 12 h [3] | concentration at 12 h [4] [ng/g] | Kp at 12 h [5] | fraction unbound at 6 h, 2 µM [6] | Kp at 12 h [7] | Kp at 12 h [8] | concentration at 12 h [9] [ng/g] | concentration at 24 h [10] [ng/g] | concentration at 24 h [11] [ng/g] | fraction unbound at 6 h, 2 µM [12] | IC50 (Cytochrome P450 2B6) [µM] | microsomal CLint at 0.3 µM [13] [µL/min/mg] | solubility kinetic at 24 h, 200 µM [14] [µM] | fraction unbound at 6 h, 2 µM [15] | concentration at 12 h [16] [ng/g] | EC50 (Hepatitis B virus [17]) [µM] | EC90 (Hepatitis B virus [17]) [µM] | AUC(0-t) at 24 h [18] [µg·h/mL] | SMILES | log(activity) (Hepatitis B virus [2]) | other results
272 | 0.5 | 1180 | 4.3 | 0.02 | 11 | 109 | 135 | 10400 | 56.8 | 0.02 | > 25 | 3 | 43 (≈ 18.6 µg/mL) | 0.05 | 2910 | 0.0022 | 0.028 | 18.9 | COc1cc(OC(F)F)c2nc3c(n2c1)C[C@@H](C(C)(C)C)c1cc(C(=O)O)c(=O)[nH]c1-3 | 0.71 | log(activity) (Hepatitis B virus [19]): 0.34; fraction unbound at 6 h, 2 µM [20]: 0.06; Ratio [21]: 662; microsomal CLint at 0.3 µM [22]: 2 µL/min/mg; EC50 (Hepatitis B virus [23]): 0.04 µM; Kp at 24 h [24]: 184; solubility kinetic at 24 h, 200 µM [25]: 183 µM (≈ 79.3 µg/mL); CC50 [26]: > 50 µM; fraction unbound at 6 h, 2 µM [27]: 0.05; Papp A→B at 2 h, 5 µM [28]: 44 nm/s; Ratio [29]: 1675; microsomal CLint at 0.3 µM [30]: 7 µL/min/mg; Kp at 24 h [31]: 184
110 | 0.7 | 347 | 3.2 | 0.02 | 2.5 | 56 | 73 | 5740 | 85.6 | 0.01 | > 25 | 5 | 39 (≈ 17.4 µg/mL) | 0.02 | 275 | 0.0006 | 0.0061 | 20.5 | CC(C)(C)[C@@H]1Cc2c(nc3c(C(F)(F)F)cc(C4CC4)cn23)-c2[nH]c(=O)c(C(=O)O)cc21 | 1.07 | log(activity) (Hepatitis B virus [19]): 0.47; fraction unbound at 6 h, 2 µM [20]: 0.02; Ratio [21]: 2089; microsomal CLint at 0.3 µM [22]: 4 µL/min/mg; EC50 (Hepatitis B virus [23]): 0.0068 µM; Kp at 24 h [24]: 67; solubility kinetic at 24 h, 200 µM [25]: 154 µM (≈ 68.6 µg/mL); CC50 [26]: 48 µM; fraction unbound at 6 h, 2 µM [27]: 0.05; Papp A→B at 2 h, 5 µM [28]: 266 nm/s; Ratio [29]: 12480; microsomal CLint at 0.3 µM [30]: 1 µL/min/mg; Kp at 24 h [31]: 67

SMILES | concentration at 12 h [1] [ng/g] | Kp at 12 h [3] | concentration at 12 h [4] [ng/g] | Kp at 12 h [5] | fraction unbound at 6 h, 2 µM [6] | Kp at 12 h [7] | Kp at 12 h [8] | concentration at 12 h [9] [ng/g] | concentration at 24 h [10] [ng/g] | concentration at 24 h [11] [ng/g] | fraction unbound at 6 h, 2 µM [12] | IC50 (Cytochrome P450 2B6) [µM] | microsomal CLint at 0.3 µM [13] [µL/min/mg] | solubility kinetic at 24 h, 200 µM [14] [µM] | fraction unbound at 6 h, 2 µM [15] | concentration at 12 h [16] [ng/g] | EC50 (Hepatitis B virus [17]) [µM] | EC90 (Hepatitis B virus [17]) [µM] | AUC(0-t) at 24 h [18] [µg·h/mL] | log(activity) (Hepatitis B virus [2]) | other results
COCCCOc1cc2c(nc1OC)-c1cc(=O)c(C(=O)O)cn1[C@H](C(C)C)C2 | 48.3 | 1.3 | 129 | 2.7 | 0.58 | 2.9 | 6 | 63 | 87 | 29 | 0.66 | 21 | 3 | 190 (≈ 76.5 µg/mL) | 0.38 | 140 | 0.0013 | 0.013 | 4.77 | 1 | log(activity) (Hepatitis B virus [19]): 0.81; fraction unbound at 6 h, 2 µM [20]: 0.46; Ratio [21]: 4; microsomal CLint at 0.3 µM [22]: 5 µL/min/mg; EC50 (Hepatitis B virus [23]): 0.0078 µM; Kp at 24 h [24]: 3; solubility kinetic at 24 h, 200 µM [25]: 175 µM (≈ 70.4 µg/mL); CC50 [26]: > 50 µM; fraction unbound at 6 h, 2 µM [27]: 0.55; Papp A→B at 2 h, 5 µM [28]: 115 nm/s; Ratio [29]: 191; microsomal CLint at 0.3 µM [30]: 3 µL/min/mg; Kp at 24 h [31]: 3
